Data reported in paper PMC11868595, “Safety, pharmacokinetics and efficacy of HA121-28 in patients with advanced solid tumors and RET fusion-positive non-small-cell lung cancer: a multicenter, open-label, single-arm phase 1/2 trial” (Signal Transduction and Targeted Therapy, 2025).

Test system: patients with advanced solid tumors
Experiment: Phase 1 trial: adverse events (CTCAE), DLT and MTD
Type: in vivo, human
Procedure: The phase 1 trial was a two-part, multicenter, open-label, nonrandomized study to evaluate the safety and preliminary efficacy of HA121-28.
Safety, tolerability, and PK of HA121-28 was assessed in dose-escalation part. The single-patient accelerated titration was carried out at 25 mg and 50 mg; then, the dose escalation proceeded according to a “3 + 3” design in dose range of 100 to 800 mg. Escalation to a higher dose level was considered by the satisfactory review of safety results from the previous lower dose during the first cycle.
The dose-expansion part aims to further access the safety and efficacy of HA121-28 at the selected doses based on data from the dose-escalation part. The RP2D was determined by investigators in view of a thorough review of safety, PK, and efficacy results.
In phase 1 trial, during the dose-escalation part, patients first administered HA121-28 in a single ascending dose under the fasted state, then followed up for seven days. Then, patients received ascending doses of HA121-28 (q.d.) on a 21-day on and 7-day off treatment scheme for a 28-day cycle. For patients deemed beneficial from the treatment by investigators, treatment could remain until disease progression, or they discontinued from the study. In the dose-expansion part of phase 1, as well as phase 2, patients received HA121-28 (q.d.) at the selected doses on a 21-day on and 7-day off treatment scheme until disease progression, or they discontinued from the study.
Treatment-emergent adverse events (TEAEs) were documented during the entire study period. The predefined adverse event of special interest (AESI) was ≥ grade 3 prolonged QT interval. Tumor imaging was performed using contrast-enhanced computed tomography or magnetic resonance imaging at screening, Day 28 of the first cycle, then approximately every eight weeks till the end of the study for phase 1; in phase 2, imaging was scheduled at screening, and every eight weeks during the first 40 weeks, followed by every 12 weeks for the rest of the study period. RECIST 1.1 was used by the independent review committee or investigators for assessment of tumor response. After the original assessment, a repeated assessment was required around four weeks later to confirm a complete or partial response.
The primary endpoints of phase 1 were to investigate the MTD, dose-limiting toxicities, and the incidence and severity of TEAEs. Each TEAE was graded according to the Common Terminology Criteria for Adverse Events (CTCAE, version 5.0) and coded by Medical Dictionary for Regulatory Activities (MedDRA, version 21.0). The secondary endpoints included calculating PK parameters, assessing the ORR and DCR at the recommended dose by investigators as per RECIST 1.1. The exploratory endpoint was PFS.
If grade 2 or higher toxicity related to the study drug occurs in Groups 1 and 2 (as determined by the investigator), dose escalation will proceed using a 3+3 design starting from that dose level. If no DLT is observed at the 800 mg/d dose level after dose escalation, a meeting of investigators will be convened to decide whether to proceed with further dose escalation based on the available PK data, safety, and tolerability information.
5. Definition of DLT and MTD
The following events related to the study drug (including those that are definitely related, highly likely to be related, and possibly related):
(1) Grade 4 hematologic toxicity or grade 3 neutropenia accompanied by a fever of 38.5℃ or higher, or grade 3 thrombocytopenia accompanied by severe bleeding.
(2) Patients who discontinued the medication for more than 7 days due to unresolved toxicity reactions or who discontinued the medication more than twice due to toxicity […]
(3) In the context of supportive treatment, diarrhea of grade 2 lasting more than 7 days, or grade 3 diarrhea lasting more than 3 days.

COc1cc2c(Nc3ccc(Br)cc3F)ncnc2cc1OCCCCN(C)C.Cl.Cl [HA121-28, N-(4-bromo-2-fluorophenyl)-7-(4-(dimethylamino)butoxy)-6-methoxy quinazolin-4-amine dihydrochloride]
Serious TRAE: Arrhythmia (Phase 1, 450 mg (N=79)): 1 (1.3) No. (%) | Serious TRAE: Blood bilirubin increased (Phase 1, 450 mg (N=79)): 0 No. (%) | Serious TRAE: Blood creatinine increased (Phase 1, 450 mg (N=79)): 0 No. (%) | Serious TRAE: COVID-19 (Phase 1, 450 mg (N=79)): 0 No. (%) | Serious TRAE: Cardiac tamponade (Phase 1, 450 mg (N=79)): 0 No. (%) | Serious TRAE: Coronary artery atherosclerosis (Phase 1, 450 mg (N=79)): 0 No. (%) | Serious TRAE: Death (Phase 1, 450 mg (N=79)): 0 No. (%) | Serious TRAE: Diarrhea (Phase 1, 450 mg (N=79)): 0 No. (%) | Serious TRAE: Drug eruption (Phase 1, 450 mg (N=79)): 0 No. (%) | Serious TRAE: Dyspnea (Phase 1, 450 mg (N=79)): 0 No. (%) | Serious TRAE: Embolism (Phase 1, 450 mg (N=79)): 0 No. (%) | Serious TRAE: Erythema multiforme (Phase 1, 450 mg (N=79)): 0 No. (%) | Serious TRAE: Headache (Phase 1, 450 mg (N=79)): 0 No. (%) | Serious TRAE: Hemoptysis (Phase 1, 450 mg (N=79)): 2 (2.5) No. (%) | Serious TRAE: Hydronephrosis (Phase 1, 450 mg (N=79)): 0 No. (%) | Serious TRAE: Hypertension (Phase 1, 450 mg (N=79)): 1 (1.3) No. (%) | Serious TRAE: Hypoalbuminemia (Phase 1, 450 mg (N=79)): 0 No. (%) | Serious TRAE: Intestinal obstruction (Phase 1, 450 mg (N=79)): 1 (1.3) No. (%) | Serious TRAE: Intra-abdominal fluid collection (Phase 1, 450 mg (N=79)): 0 No. (%) | Serious TRAE: Intracranial tumor hemorrhage (Phase 1, 450 mg (N=79)): 0 No. (%) | Serious TRAE: Liver injury (Phase 1, 450 mg (N=79)): 0 No. (%) | Serious TRAE: Lung adenocarcinoma (Phase 1, 450 mg (N=79)): 0 No. (%) | Serious TRAE: Malignant neoplasm progression (Phase 1, 450 mg (N=79)): 0 No. (%) | Serious TRAE: Multiple organ dysfunction syndrome (Phase 1, 450 mg (N=79)): 0 No. (%) | Serious TRAE: Nausea (Phase 1, 450 mg (N=79)): 0 No. (%) | Serious TRAE: Nephrolithiasis (Phase 1, 450 mg (N=79)): 0 No. (%) | Serious TRAE: Platelet counts decreased (Phase 1, 450 mg (N=79)): 0 No. (%) | Serious TRAE: Pleural effusion (Phase 1, 450 mg (N=79)): 0 No. (%) | Serious TRAE: Pneumonia (Phase 1, 450 mg (N=79)): 0 No. (%) | Serious TRAE: Pneumonitis (Phase 1, 450 mg (N=79)): 1 (1.3) No. (%) | Serious TRAE: Prolonged QT interval (Phase 1, 450 mg (N=79)): 0 No. (%) | Serious TRAE: Pulmonary embolism (Phase 1, 450 mg (N=79)): 0 No. (%) | Serious TRAE: Pyrexia (Phase 1, 450 mg (N=79)): 0 No. (%) | Serious TRAE: Rash (Phase 1, 450 mg (N=79)): 1 (1.3) No. (%) | Serious TRAE: Rectal hemorrhage (Phase 1, 450 mg (N=79)): 1 (1.3) No. (%) | Serious TRAE: Respiratory failure (Phase 1, 450 mg (N=79)): 0 No. (%) | Serious TRAE: Seizure (Phase 1, 450 mg (N=79)): 0 No. (%) | Serious TRAE: Septic shock (Phase 1, 450 mg (N=79)): 0 No. (%) | Serious TRAE: Sudden cardiac arrest (Phase 1, 450 mg (N=79)): 0 No. (%) | Serious TRAE: Sudden death (Phase 1, 450 mg (N=79)): 0 No. (%) | Serious TRAE: Upper respiratory tract infection (Phase 1, 450 mg (N=79)): 1 (1.3) No. (%) | Serious TRAE: Ventricular tachycardia (Phase 1, 450 mg (N=79)): 0 No. (%) | Serious TRAE: Vomiting (Phase 1, 450 mg (N=79)): 0 No. (%) | Serious TRAE: Weight loss (Phase 1, 450 mg (N=79)): 0 No. (%) | Serious TEAE: ALT increased (Phase 1, 600 mg (N=64)): 2 (3.1) No. (%) | Serious TEAE: AST increased (Phase 1, 600 mg (N=64)): 2 (3.1) No. (%) | Serious TEAE: Abdominal Pain (Phase 1, 600 mg (N=64)): 0 No. (%) | Serious TEAE: Abdominal distension (Phase 1, 600 mg (N=64)): 0 No. (%) | Serious TEAE: Acute cholecystitis (Phase 1, 600 mg (N=64)): 0 No. (%) | Serious TEAE: Acute pancreatitis (Phase 1, 600 mg (N=64)): 1 (1.6) No. (%) | Serious TEAE: Anal abscess (Phase 1, 600 mg (N=64)): 1 (1.6) No. (%) | Serious TEAE: Any (Phase 1, 600 mg (N=64)): 17 (26.6) No. (%) | Serious TEAE: Aortic intramural hematoma (Phase 1, 600 mg (N=64)): 0 No. (%) | Serious TEAE: Arrhythmia (Phase 1, 600 mg (N=64)): 0 No. (%) | Serious TEAE: Blood bilirubin increased (Phase 1, 600 mg (N=64)): 1 (1.6) No. (%) | Serious TEAE: Blood creatinine increased (Phase 1, 600 mg (N=64)): 1 (1.6) No. (%) | Serious TEAE: COVID-19 (Phase 1, 600 mg (N=64)): 0 No. (%)
